Assay results published in paper PMC7179445, “Anticancer Activities of Newly Synthesized Chiral Macrocyclic Heptapeptide Candidates” (Molecules, 2020).
Where two headings read alike, the source gives them in different places.

Experiments:
HepG2 cells = type: cell-based, human
Description: (§1) The cytotoxic effects of the prepared compounds on MCF-7 and HepG2 cells were investigated with the help of standard MTT assay. […] Plates were then further incubated for 72 h. Afterwards, 20 μL of MTT (5 mg/mL in PBS) were pipetted to the wells and incubated for another 4 h. The medium was then aspirated and 100 μL DMSO were added/well. Absorbance was read using a microplate reader at 570 nm. IC50 values, used to compare compound toxicity with control cells, were obtained from linear regression of the dose–response curve using Origin® 6.1 software (OriginLab Corporation, Northampton, MA, USA). […] Data were represented as mean ± SD.

MCF-7 cells = type: cell-based, human; details: for IC50: 72 h
Description: as §1

Row | Compound | IC50 (HepG2 cells; 72 h) [µM] | IC50 (MCF-7 cells) [µM] | IC50 (HepG2 cells; read-out: IC50 (compound concentration required to inhibit the cell viability by 50%), HepG-2, hepatocellular cancer cell line HepG2, MTT assay, RPMI 1640, 72 h incubation, absorbance 570 nm, mean ± SD, triplicates) [µM] | cytotoxic activity against HepG2 cells (in words) (HepG2 cells) | cytotoxic activity against MCF-7 cells (in words) (MCF-7 cells)
1 | CC[C@H](C)[C@H](NC(=O)c1cccc(C(=O)N[C@H](C(=O)N[C@@H](Cc2ccccc2)C(=O)N[C@H](C(=O)OC)[C@@H](C)CC)[C@@H](C)CC)n1)C(=O)N[C@@H](Cc1ccccc1)C(=O)N[C@H](C(=O)OC)[C@@H](C)CC [2b, N^α-Dipicolinoyl-bis[L-ILe-L-L-Phe-ILe-methyl ester]] | 18.7 ± 0.988 | 20.7 ± 0.974 |  |  | 
2 | CC[C@H](C)[C@H](NC(=O)[C@@H](NC(=O)[C@H](Cc1ccccc1)NC(=O)c1cccc(C(=O)N[C@@H](Cc2ccccc2)C(=O)N[C@H](C(=O)N[C@H](C(=O)O)[C@@H](C)CC)[C@@H](C)CC)n1)[C@@H](C)CC)C(=O)O [3c, N^α-Dipicolinoyl-bis[L-Phe-L-ILe-L-ILe-carboxylic acid]] | 17 ± 1.16 | 22.9 ± 0.992 |  |  | 
3 | CC[C@H](C)[C@H](NC(=O)c1cccc(C(=O)N[C@H](C(=O)N[C@H](C(=O)N[C@@H](Cc2ccccc2)C(=O)OC)[C@@H](C)CC)[C@@H](C)CC)n1)C(=O)N[C@H](C(=O)N[C@@H](Cc1ccccc1)C(=O)OC)[C@@H](C)CC [2a, N^α-Dipicolinoyl-bis[L-ILe-L-ILe-L-Phe-methyl ester]] | 17.5 ± 0.876 | > 100 |  |  | 
4 | CC[C@H](C)[C@H](NC(=O)c1cccc(C(=O)N[C@H](C(=O)N[C@@H](Cc2ccccc2)C(=O)O)[C@@H](C)CC)n1)C(=O)N[C@@H](Cc1ccccc1)C(=O)O [1b] | 8.72 ± 0.474 | 10.9 ± 0.534 |  |  | 
5 | CC[C@H](C)[C@@H]1NC(=O)c2cccc(n2)C(=O)N[C@@H]([C@@H](C)CC)C(=O)N[C@@H](Cc2ccccc2)C(=O)N[C@@H]([C@@H](C)CC)C(=O)N[C@H](C(=O)OC)CCCCNC(=O)[C@H]([C@@H](C)CC)NC(=O)[C@H](Cc2ccccc2)NC1=O [4b, Cyclo-(N^α-dipicolinoyl)-bis-[(L-ILe-L-Phe-L-Ile)-L-Lysmethyl ester]] | 7.17 ± 0.892 | 9.19 ± 0.545 |  |  | 
6 | CC[C@H](C)[C@@H]1NC(=O)[C@H](Cc2ccccc2)NC(=O)c2cccc(n2)C(=O)N[C@@H](Cc2ccccc2)C(=O)N[C@@H]([C@@H](C)CC)C(=O)N[C@@H]([C@@H](C)CC)C(=O)N[C@H](C(=O)OC)CCCCNC(=O)[C@H]([C@@H](C)CC)NC1=O [4c, Cyclo-(N^α-dipicolinoyl)-bis-[(L-Phe-L-ILe-L-Ile)-L-Lysmethyl ester]] | 9.63 ± 0.932 | 19.6 ± 1.03 |  |  | 
7 | N.N.[Cl][Pt][Cl] [Cisplatin, reference compound] |  |  | 10.9 ± 0.962 |  | 
8 | CC[C@H](C)[C@@H]1NC(=O)c2cccc(n2)C(=O)N[C@@H]([C@@H](C)CC)C(=O)N[C@@H]([C@@H](C)CC)C(=O)N[C@@H](Cc2ccccc2)C(=O)N[C@H](C(=O)O)CCCCNC(=O)[C@H](Cc2ccccc2)NC(=O)[C@H]([C@@H](C)CC)NC1=O [5a, Cyclo-(N^α-dipicolinoyl)-bis-[(L-ILe-L-Ile-L-Phe)-L-Lyscarboxylic acid]] | 7.12 ± 0.79 |  |  |  | 
9 | CC[C@H](C)[C@H](NC(=O)[C@@H](NC(=O)c1cccc(C(=O)N[C@H](C(=O)N[C@H](C(=O)O)[C@@H](C)CC)[C@@H](C)CC)n1)[C@@H](C)CC)C(=O)O [1a] | 6.62 ± 0.353 | 15.3 ± 0.672 |  |  | 
10 | CC[C@H](C)[C@H](NC(=O)[C@H](Cc1ccccc1)NC(=O)[C@@H](NC(=O)c1cccc(C(=O)N[C@H](C(=O)N[C@@H](Cc2ccccc2)C(=O)N[C@H](C(=O)O)[C@@H](C)CC)[C@@H](C)CC)n1)[C@@H](C)CC)C(=O)O [3b, N^α-Dipicolinoyl-bis[L-ILe-L-Phe-L-ILe-carboxylic acid]] | 9.66 ± 0.792 | 9.91 ± 0.491 |  |  | 
11 | CC[C@H](C)[C@H](NC(=O)[C@H](Cc1ccccc1)NC(=O)c1cccc(C(=O)N[C@@H](Cc2ccccc2)C(=O)N[C@H](C(=O)N[C@H](C(=O)OC)[C@@H](C)CC)[C@@H](C)CC)n1)C(=O)N[C@H](C(=O)OC)[C@@H](C)CC [2c, N^α-Dipicolinoyl-bis[L-Phe-L-ILe-L-ILe-methyl ester]] | 19.3 ± 1.06 | 24.9 ± 1.08 |  |  | 
12 | CC[C@H](C)[C@H](NC(=O)[C@H](Cc1ccccc1)NC(=O)c1cccc(C(=O)N[C@@H](Cc2ccccc2)C(=O)N[C@H](C(=O)O)[C@@H](C)CC)n1)C(=O)O [1c] | 17 ± 0.965 | 34.9 ± 1.27 |  |  | 
13 | CC[C@H](C)[C@@H]1NC(=O)c2cccc(n2)C(=O)N[C@@H]([C@@H](C)CC)C(=O)N[C@@H](Cc2ccccc2)C(=O)N[C@@H]([C@@H](C)CC)C(=O)N[C@H](C(=O)O)CCCCNC(=O)[C@H]([C@@H](C)CC)NC(=O)[C@H](Cc2ccccc2)NC1=O [5b, Cyclo-(N^α-dipicolinoyl)-bis-[(L-ILe-L-Phe-L-Ile)-L-Lyscarboxylic acid]] | 7.09 ± 0.784 |  |  |  | 
14 | CC[C@H](C)[C@@H]1NC(=O)[C@H](Cc2ccccc2)NC(=O)c2cccc(n2)C(=O)N[C@@H](Cc2ccccc2)C(=O)N[C@@H]([C@@H](C)CC)C(=O)N[C@@H]([C@@H](C)CC)C(=O)N[C@H](C(=O)O)CCCCNC(=O)[C@H]([C@@H](C)CC)NC1=O [5c, Cyclo-(N^α-dipicolinoyl)-bis-[(L-Phe-L-ILe-L-Ile)-L-Lyscarboxylic acid]] | 9.57 ± 1.14 |  |  | only active against HepG2 cells | did not show any activity
15 | CC[C@H](C)[C@@H]1NC(=O)c2cccc(n2)C(=O)N[C@@H]([C@@H](C)CC)C(=O)N[C@@H]([C@@H](C)CC)C(=O)N[C@@H](Cc2ccccc2)C(=O)N[C@H](C(=O)OC)CCCCNC(=O)[C@H](Cc2ccccc2)NC(=O)[C@H]([C@@H](C)CC)NC1=O [4a, Cyclo-(N^α-dipicolinoyl)-bis-[(L-ILe-L-ILe-L-Phe)-L-Lysmethyl ester]] | 7.31 ± 0.595 | 9.3 ± 0.536 |  |  | 
16 | CC[C@H](C)[C@H](NC(=O)c1cccc(C(=O)N[C@H](C(=O)N[C@H](C(=O)N[C@@H](Cc2ccccc2)C(=O)O)[C@@H](C)CC)[C@@H](C)CC)n1)C(=O)N[C@H](C(=O)N[C@@H](Cc1ccccc1)C(=O)O)[C@@H](C)CC [3a, N^α-Dipicolinoyl-bis[L-ILe-L-ILe-L-Phe-carboxylic acid]] | 8.06 ± 0.863 | 10.3 ± 0.546 |  |  | 
